According to ChEMBL document CHEMBL3867460, “Identification of 4-(2-furanyl)pyrimidin-2-amines as Janus kinase 2 inhibitors” (Bioorg Med Chem, 2017):

Legend:
[1] = molecular target: T1, Tyrosine-protein kinase JAK3 (Homo sapiens, UniProt P52333)
T1 sequence (P52333 whole entry): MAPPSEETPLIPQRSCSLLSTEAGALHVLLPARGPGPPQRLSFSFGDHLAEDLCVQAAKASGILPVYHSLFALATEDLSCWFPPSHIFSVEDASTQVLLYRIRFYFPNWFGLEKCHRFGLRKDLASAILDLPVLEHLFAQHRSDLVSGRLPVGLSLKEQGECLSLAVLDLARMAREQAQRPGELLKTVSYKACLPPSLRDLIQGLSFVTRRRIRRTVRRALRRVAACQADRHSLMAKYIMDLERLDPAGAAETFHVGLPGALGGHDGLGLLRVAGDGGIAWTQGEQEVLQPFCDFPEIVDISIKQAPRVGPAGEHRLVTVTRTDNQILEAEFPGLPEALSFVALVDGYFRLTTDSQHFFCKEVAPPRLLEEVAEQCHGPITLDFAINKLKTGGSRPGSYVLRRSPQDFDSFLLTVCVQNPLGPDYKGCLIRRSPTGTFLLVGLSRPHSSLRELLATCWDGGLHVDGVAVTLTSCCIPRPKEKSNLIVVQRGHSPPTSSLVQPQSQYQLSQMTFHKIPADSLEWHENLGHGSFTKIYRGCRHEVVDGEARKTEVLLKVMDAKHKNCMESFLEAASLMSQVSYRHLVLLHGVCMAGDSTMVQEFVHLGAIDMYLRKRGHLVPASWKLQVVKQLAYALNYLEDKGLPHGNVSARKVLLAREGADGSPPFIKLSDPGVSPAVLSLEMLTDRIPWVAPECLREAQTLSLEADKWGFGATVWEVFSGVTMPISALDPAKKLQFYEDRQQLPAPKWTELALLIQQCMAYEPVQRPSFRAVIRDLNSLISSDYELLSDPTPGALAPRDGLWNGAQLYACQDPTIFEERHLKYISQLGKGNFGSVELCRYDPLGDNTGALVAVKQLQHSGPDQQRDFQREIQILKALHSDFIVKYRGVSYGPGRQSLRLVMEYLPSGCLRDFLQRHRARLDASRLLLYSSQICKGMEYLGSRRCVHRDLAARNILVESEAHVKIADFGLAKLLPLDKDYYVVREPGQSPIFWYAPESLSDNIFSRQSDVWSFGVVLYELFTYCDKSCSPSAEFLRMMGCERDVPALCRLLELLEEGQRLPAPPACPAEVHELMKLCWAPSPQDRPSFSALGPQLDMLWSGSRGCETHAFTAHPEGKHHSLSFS
Description: Inhibition of GST-tagged recombinant human cytoplasmic JAK3 expressed in baculovirus using TK-substrate-biotin as substrate preincubated for 5 mins followed by substrate addition after 30 mins by HTRF assay

[2] = species: Homo sapiens; experiment: Selectivity ratio of IC50 for human JAK3 expressed in baculovirus to IC50 for human JAK2 expressed in baculovirus
[3] = molecular target: Tyrosine-protein kinase JAK2 (Homo sapiens, UniProt O60674)
Sequence of Tyrosine-protein kinase JAK2 (Homo sapiens, UniProt O60674) (O60674 whole entry): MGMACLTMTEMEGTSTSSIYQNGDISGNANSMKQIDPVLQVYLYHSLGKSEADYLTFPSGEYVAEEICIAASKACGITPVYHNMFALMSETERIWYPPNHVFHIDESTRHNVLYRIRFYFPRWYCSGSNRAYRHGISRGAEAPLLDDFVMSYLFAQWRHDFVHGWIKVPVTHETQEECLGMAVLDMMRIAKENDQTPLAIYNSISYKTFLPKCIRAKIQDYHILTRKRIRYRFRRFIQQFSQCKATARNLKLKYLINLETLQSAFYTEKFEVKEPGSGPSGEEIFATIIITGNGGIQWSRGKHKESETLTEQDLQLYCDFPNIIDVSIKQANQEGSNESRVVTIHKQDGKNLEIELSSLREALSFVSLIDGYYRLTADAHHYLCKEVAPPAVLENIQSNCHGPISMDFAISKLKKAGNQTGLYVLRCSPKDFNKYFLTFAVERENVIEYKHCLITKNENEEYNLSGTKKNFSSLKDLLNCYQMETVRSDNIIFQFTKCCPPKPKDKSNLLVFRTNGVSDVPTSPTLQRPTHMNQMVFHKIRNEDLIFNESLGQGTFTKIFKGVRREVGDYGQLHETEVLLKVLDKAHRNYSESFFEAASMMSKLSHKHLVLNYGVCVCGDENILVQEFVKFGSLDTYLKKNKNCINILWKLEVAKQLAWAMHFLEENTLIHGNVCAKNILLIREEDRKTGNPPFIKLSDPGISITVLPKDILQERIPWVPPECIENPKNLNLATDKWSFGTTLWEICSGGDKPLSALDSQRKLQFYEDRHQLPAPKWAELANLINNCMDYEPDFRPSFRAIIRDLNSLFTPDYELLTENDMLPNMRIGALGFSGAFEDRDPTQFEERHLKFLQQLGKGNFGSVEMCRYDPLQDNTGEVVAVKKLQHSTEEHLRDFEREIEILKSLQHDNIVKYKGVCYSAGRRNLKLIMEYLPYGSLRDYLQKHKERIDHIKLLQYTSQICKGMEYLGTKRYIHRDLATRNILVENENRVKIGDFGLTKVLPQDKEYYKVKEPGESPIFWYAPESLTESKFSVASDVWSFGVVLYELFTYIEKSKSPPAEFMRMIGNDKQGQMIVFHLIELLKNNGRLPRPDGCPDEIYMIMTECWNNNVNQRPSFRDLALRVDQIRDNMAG
Description: Inhibition of GST-tagged recombinant human JAK2 expressed in baculovirus using TK-substrate-biotin as substrate preincubated for 5 mins followed by substrate addition after 30 mins by HTRF assay

[4] = molecular target: Tyrosine-protein kinase JAK2 (Homo sapiens, UniProt O60674, V617F)
Sequence of Tyrosine-protein kinase JAK2 (Homo sapiens, UniProt O60674, V617F) (O60674 whole entry V617F): as the sequence (O60674 whole entry) above, with V617F counted along it

[5] = molecular target: Tyrosine-protein kinase SYK (Homo sapiens, UniProt P43405); experiment: Inhibition of SYK (unknown origin)

IC50 [1] [nM] | Ratio IC50 [2] | IC50 [3] [nM] | IC50 [4] [nM] | IC50 [5] [nM] | Structure (SMILES)
359 | 21.7 | 16.6 | – | – | Cc1cnc(Nc2ccc(OCC(=O)O)cc2)nc1-c1cc2ccccc2o1
1200 | 3.7 | 324 | – | – | CCOC(=O)COc1ccc(Nc2ncc(C)c(-c3cc4ccccc4o3)n2)cc1
836 | 32.5 | 25.7 | – | – | Cc1cnc(Nc2ccc(N3CCOCC3)cc2)nc1-c1cc2cc(COCC(F)(F)F)ccc2o1
364 | 35 | 10.4 | 3090 | – | Cc1cnc(Nc2ccc(N3CCOCC3)cc2)nc1-c1cc2cc(C#N)ccc2o1
183 | – | – | – | – | Cc1cnc(Nc2ccc(N3CCOCC3)cc2)nc1-c1cc2ccccc2o1
1580 | 7 | 226 | – | – | Cc1cnc(Nc2ccc(/C=C/C(=O)NO)cc2)nc1-c1cc2ccccc2o1
202 | 1.5 | 137 | – | – | N#Cc1ccc2oc(-c3nc(Nc4ccc(N5CCNCC5)cc4)ncc3C(F)(F)F)cc2c1
5170 | 0.7 | 7090 | – | – | CC1CC(C)CN(c2ccc(Nc3ncc(C(F)(F)F)c(-c4cc5ccc(C#N)cc5o4)n3)cc2)C1 (stereo not drawn)

Second part, the compound before the results:

Structure (SMILES) | IC50 [1] [nM] | Ratio IC50 [2] | IC50 [3] [nM] | IC50 [4] [nM] | IC50 [5] [nM]
COc1cc(Nc2ncc(F)c(-c3cc4c(o3)CCN(S(C)(=O)=O)C4)n2)cc(OC)c1OC | 178 | 18.9 | 9.4 | – | –
CCOC(=O)COc1cccc(Nc2ncc(C)c(-c3cc4ccccc4o3)n2)c1 | 87.6 | 4.6 | 18.9 | – | –
CS(=O)(=O)N1CCc2oc(-c3ccnc(Nc4ccc(N5CCOCC5)cc4)n3)cc2C1 | 226 | 5.3 | 42.9 | – | –
CN1CCN(c2ccc(Nc3nccc(-c4cc5c(o4)CCN(C(=O)CC#N)C5)n3)cc2)CC1 | 136 | 2.5 | 53.7 | 7440 | –
CS(=O)(=O)N1CCc2oc(-c3nc(Nc4ccc(OCCN5CCCC5)cc4)ncc3F)cc2C1 | 176 | 3.2 | 55.4 | – | –
CN1CCN(c2ccc(Nc3nccc(-c4cc5c(o4)CCN(S(C)(=O)=O)C5)n3)cc2)CC1 | 204 | – | – | – | –
Cc1cnc(Nc2ccc(N3CCOCC3)cc2)nc1-c1cc2c(o1)CCN(S(C)(=O)=O)C2 | 23.2 | 33.1 | 0.7 | 1250 | 49.8
N#CCC(=O)N1CCc2oc(-c3ccnc(Nc4ccc(N5CCOCC5)cc4)n3)cc2C1 | 140 | 10.6 | 13.2 | 5520 | –
CS(=O)(=O)N1CCc2oc(-c3ccnc(Nc4ccc(OCCN5CCCC5)cc4)n3)cc2C1 | 501 | 3.1 | 164 | 1260 | –
